Reference: patent US20040024024A1, “Aromatic sulfone hydroxamates and their use as protease inhibitors” (priority 2001, published 2004)
pKi: −log10 of the molar value.

Assays:
[1] = target: T1, Human recombinant MMP-2 (Homo sapiens, UniProt P08253); assay: In vitro MMP inhibition, Ki determination (fluorogenic substrate II); type: biochemical
T1 construct: made in house; host or cells: MMP-2-transfected p2AHT2 cells
T1 sequence (P08253 110-660): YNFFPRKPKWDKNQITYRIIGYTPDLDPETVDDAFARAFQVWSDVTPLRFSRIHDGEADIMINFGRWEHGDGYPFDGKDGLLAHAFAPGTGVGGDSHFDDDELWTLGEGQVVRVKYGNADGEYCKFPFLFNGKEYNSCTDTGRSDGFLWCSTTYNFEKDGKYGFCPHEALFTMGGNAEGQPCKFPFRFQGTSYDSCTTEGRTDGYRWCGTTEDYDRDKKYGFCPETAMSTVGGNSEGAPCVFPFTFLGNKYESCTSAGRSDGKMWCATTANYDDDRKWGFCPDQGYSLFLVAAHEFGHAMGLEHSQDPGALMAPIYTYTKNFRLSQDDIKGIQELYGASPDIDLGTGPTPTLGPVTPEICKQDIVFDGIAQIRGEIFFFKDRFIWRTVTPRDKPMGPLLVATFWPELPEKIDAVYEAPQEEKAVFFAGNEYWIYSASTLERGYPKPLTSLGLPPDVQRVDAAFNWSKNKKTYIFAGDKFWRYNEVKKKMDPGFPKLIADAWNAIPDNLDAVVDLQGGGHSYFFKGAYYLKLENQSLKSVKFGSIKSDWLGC

[2] = target: T2, Human recombinant MMP-14 (Homo sapiens, UniProt P50281); assay: as above; type: biochemical
T2 construct: The catalytic domain enzyme was expressed in E. coli inclusion bodies, solubilized in urea; made in house
Procedure, shortened: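 Refolded E. coli-expressed MMP-14 catalytic domain, APMA- or trypsin-activated, incubated 1 h at room temperature with 4 μM fluorogenic substrate II in pH 7.5 Tris/NaCl/CaCl2 buffer; fluorescence read at 330/420 nm. Ki from Morrison-equation non-linear regression, substrate at or below Km, uncorrected for substrate.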

[3] = substrate (II) 4 μM, 1 hr room temperature, apparent Ki, values in parenthesis

SMILES	pKi ([1]; value in parentheses)	pKi ([2]; value in parentheses)	pKi ([1]; value in parenthesis)	pKi ([2]; value in parenthesis)	other results
O=C(NCCSc1ccc(S(=O)(=O)C2(C(=O)NO)CCN(C3CC3)CC2)cc1)c1nc2ccccc2s1 [Example 541]	6.52	< 5.00	–	–	–
COCCN1CCC(C(=O)NO)(S(=O)(=O)c2ccc(OCCc3ccc(-c4ccc(C#N)cc4)cc3)cc2)CC1 [Example 543]	6.91	5.51	–	–	–
C#Cc1ccc(-c2cccc(CCCOc3ccc(S(=O)(=O)C4(C(=O)NO)CCN(CCOC)CC4)cc3)c2)cc1 [Example 646]	6.54	5.37	–	–	–
COCCN1CCC(C(=O)NO)(S(=O)(=O)c2ccc(OCCc3cccc(-c4ccc(F)cc4F)c3)cc2)CC1 [Example 546]	6.37	< 5.00	–	–	–
CCN1CCC(C(=O)NO)(S(=O)(=O)c2ccc(OCCCc3cccc(-c4ccc(Cl)cc4)c3)cc2)CC1 [Example 526]	5.77	< 5.00	–	–	–
COCCN1CCC(C(=O)NO)(S(=O)(=O)c2ccc(OCCc3cccc(-c4ccccc4)c3)cc2)CC1 [Example 45]	–	–	–	–	pKi [1, 3]: 6.65; pKi [2, 3]: < 5.00
COCCN1CCC(C(=O)NO)(S(=O)(=O)c2ccc(OCCCc3cccc(-c4ccc(C#N)cc4)c3)cc2)CC1 [Example 514]	6.53	5.39	–	–	–
O=C(NO)C1(S(=O)(=O)c2ccc(OCCc3cccc(-c4ccccc4Cl)c3)cc2)CCOCC1 [Example 114]	–	–	5.82	< 5.00	–
CC(C)c1ccc(-c2cccc(CCOc3ccc(S(=O)(=O)C4(C(=O)NO)CCOCC4)cc3)c2)cc1 [Example 109]	–	–	5.09	< 5.00	–
COCCN1CCC(C(=O)NO)(S(=O)(=O)c2ccc(OCCc3cccc(-c4ccccc4F)c3)cc2)CC1 [Example 540]	6.57	< 5.00	–	–	–
O=C(NO)C1(S(=O)(=O)c2ccc(OCCc3cccc(-c4ccc(OC(F)(F)F)cc4)c3)cc2)CCOCC1 [Example 112]	–	–	5.40	< 5.00	–
NC(=O)c1cccc(-c2noc(CCCOc3ccc(S(=O)(=O)C4(C(=O)NO)CCN(C5CC5)CC4)cc3)n2)c1 [Example 129]	–	–	7.30	< 5.00	–
O=C(NO)C1(S(=O)(=O)c2ccc(OCCc3ccc(-c4cccc(O)c4)cc3)cc2)CCOCC1 [Example 532]	6.13	< 5.00	–	–	–
COc1ccc(-c2cccc(CCOc3ccc(S(=O)(=O)C4(C(=O)NO)CCOCC4)cc3)c2)cc1C [Example 119]	–	–	5.77	< 5.00	–
O=C(NO)C1(S(=O)(=O)c2ccc(OCCCc3nc(-c4ccc(OC(F)(F)F)cc4)no3)cc2)CCN(Cc2ccccc2)CC1 [Example 93]	–	–	6.17	< 5.00	–
COCCN1CCC(C(=O)NO)(S(=O)(=O)c2ccc(OCCCc3nc(-c4cccc5ccccc45)no3)cc2)CC1 [Example 199]	–	–	6.64	< 5.00	–
COCCN1CCC(C(=O)NO)(S(=O)(=O)c2ccc(OCCCc3cccc(-c4ccc(F)c(F)c4)c3)cc2)CC1 [Example 52]	–	–	–	–	pKi [1, 3]: 6.27; pKi [2, 3]: < 5.00
COCCN1CCC(C(=O)NO)(S(=O)(=O)c2ccc(OCCCc3nc(-c4ccc(Br)cc4C)no3)cc2)CC1 [Example 135]	–	–	7.23	5.02	–
O=C(NO)C1(S(=O)(=O)c2ccc(OCCCc3nc(C4CCCCC4)no3)cc2)CCN(C2CC2)CC1 [Example 137]	–	–	7.44	< 5.00	–
COCCN1CCC(C(=O)NO)(S(=O)(=O)c2ccc(OCCc3cccc(-c4ccc(Cl)cc4)c3)cc2)CC1 [Example 547]	6.14	< 5.00	–	–	–
COCCN1CCC(C(=O)NO)(S(=O)(=O)c2ccc(OCCc3cccc(-c4cccc(F)c4)c3)cc2)CC1 [Example 545]	6.51	< 5.00	–	–	–
COCCN1CCC(C(=O)NO)(S(=O)(=O)c2ccc(OCCc3cccc(-c4ccncc4)c3)cc2)CC1 [Example 538]	7.61	5.77	–	–	–
O=C(NO)C1(S(=O)(=O)c2ccc(OCCc3cccc(-c4cc(F)cc(F)c4)c3)cc2)CCOCC1 [Example 110]	–	–	6.95	< 5.00	–
O=C(NCCOc1ccc(S(=O)(=O)C2(C(=O)NO)CCOCC2)cc1)c1c[nH]c2ccccc12 [Example 562]	6.62	5.03	–	–	–
COCCN1CCC(C(=O)NO)(S(=O)(=O)c2ccc(OCCc3cccc(-c4ccc(F)cc4)c3)cc2)CC1 [Example 544]	6.52	< 5.00	–	–	–
COCCN1CCC(C(=O)NO)(S(=O)(=O)c2ccc(OCCc3cccc(-c4cccnc4)c3)cc2)CC1 [Example 539]	7.41	5.93	–	–	–
COCCN1CCC(C(=O)NO)(S(=O)(=O)c2ccc(OCCCc3cccc(-c4ccccc4F)c3)cc2)CC1 [Example 512]	6.12	< 5.00	–	–	–
O=C(NO)C1(S(=O)(=O)c2ccc(OCCc3cccc(-c4ccc(Cl)c(Cl)c4)c3)cc2)CCOCC1 [Example 121]	–	–	5.34	< 5.00	–
COCCN1CCC(C(=O)NO)(S(=O)(=O)c2ccc(OCCCc3nc(-c4ccc(C5(c6ccccc6)CC5)cc4)no3)cc2)CC1 [Example 185]	–	–	6.94	< 5.00	–
COCCN1CCC(C(=O)NO)(S(=O)(=O)c2ccc(OCCc3cccc(-c4ccc(F)c(F)c4)c3)cc2)CC1 [Example 549]	6.30	< 5.00	–	–	–

Second part, led by results:

pKi ([1]; value in parentheses)	pKi ([2]; value in parentheses)	pKi ([1]; value in parenthesis)	pKi ([2]; value in parenthesis)	SMILES	other results
7.99	6.26	–	–	O=C(NO)C1(S(=O)(=O)c2ccc(OCCCOc3cccnc3)cc2)CCOCC1 [Example 560]	–
7.08	5.24	–	–	CCC(=O)c1cccc(CCCOc2ccc(S(=O)(=O)C3(C(=O)NO)CCOCC3)cc2)c1 [Example 528]	–
8.19	7.28	–	–	O=C(NO)C1(S(=O)(=O)c2ccc(OCCc3cccnc3)cc2)CCOCC1 [Example 557]	–
–	–	6.19	< 5.00	CCCCc1ccc(-c2noc(CCCOc3ccc(S(=O)(=O)C4(C(=O)NO)CCOCC4)cc3)n2)c(C)c1 [Example 183]	–
–	–	5.09	< 5.00	Cc1cc(-c2cccc(CCCOc3ccc(S(=O)(=O)C4(C(=O)NO)CCOCC4)cc3)c2)ccc1Cl [Example 166]	–
9.08	6.35	–	–	CCCCCCCOc1ccc(S(=O)(=O)C2(C(=O)NO)CCOCC2)cc1 [Example 507]	–
6.36	< 5.00	–	–	O=C(NO)C1(S(=O)(=O)c2ccc(OCCCc3ccc(F)c(-c4ccccc4)c3)cc2)CCOCC1 [Example 504]	–
–	–	5.27	< 5.00	O=C(NO)C1(S(=O)(=O)c2ccc(OCCCc3cccc(-c4ccc(Cl)c(Cl)c4)c3)cc2)CCOCC1 [Example 169]	–
7.60	5.17	–	–	CCCc1ccc(CCCOc2ccc(S(=O)(=O)C3(C(=O)NO)CCOCC3)cc2)cn1 [Example 534]	–
7.93	6.07	–	–	O=C(NO)C1(S(=O)(=O)c2ccc(OCCCOc3cncnc3)cc2)CCOCC1 [Example 559]	–
8.31	5.61	–	–	CCc1ccc(COc2ccc(S(=O)(=O)C3(C(=O)NO)CCOCC3)cc2)cn1 [Example 552]	–
7.67	5.87	–	–	Cc1ccc(NC(=O)CCCOc2ccc(S(=O)(=O)C3(C(=O)NO)CCOCC3)cc2)cc1I [Example 527]	–
8.26	5.66	–	–	CCCc1ccc(COc2ccc(S(=O)(=O)C3(C(=O)NO)CCOCC3)cc2)cn1 [Example 550]	–
8.59	6.02	–	–	CCCC(=O)CCCOc1ccc(S(=O)(=O)C2(C(=O)NO)CCOCC2)cc1 [Example 505]	–
–	–	< 5.00	< 5.00	O=C(NO)C1(S(=O)(=O)c2ccc(OCCCc3cccc(-c4cc(Cl)cc(Cl)c4)c3)cc2)CCOCC1 [Example 172]	–
